Laboratory results: US20190365754A1, “METHOD OF ELIMINATING STEM CELLS” (Yissum Research Development Company Of The Hebrew …, priority 2014, published 2019)

Assays:
[1] = system: beta catenin, p53, DNA damage response; test: Stabilization of beta catenin and p53 and DNA damage response by CKI inhibitors
β-catenin, p53, c-Myc = test: Western blot of bone marrow from inhibitor-treated CML carrying mice; format: in vivo, mouse; conditions: daily i.p. 60 mg/Kg; FIG. 6B
Description: (§1) The PF670462 was dissolved in 20% 2-hydroxypropyl β-cyclodextrin (vehicle) and administered by daily I.P. of 60 mg/Kg starting 7 hour after disease transfer. The control mice were treated with the vehicle only.
Whole cell lysate were extracted in the presence of protease and phosphatase inhibitors from the bone marrow of CML carrying mice treated with either vehicle or PF670462.
Protein extracts, separated by […] and transferred onto nitrocellulose membranes, were probed with antibodies against beta-catenin, c-Myc, p53 and HSP90. Proteins of interest were detected with HRP-conjugated Donkey/Rabbit anti-mouse IgG antibody (1:5000. GE Healthcare, Uppsala, Sweden) and visualized with the Pierce ECL Western blotting substrate (Thermo Scientific, Rockford, Ill.), according to the provided protocol.

Wnt and p53 pathway = test: Quantitative RT-PCR of p53 and Wnt targets in inhibitor-treated bone marrow cells; format: cell-based, mouse; conditions: bone marrow cells treated in vitro; FIG. 5B
Description: (§2) Freshly isolated bone marrow from CML carrying mice was mixed with normal mice bone marrow in a 1:1 ratio and grown in RPMI supplemented with 15% FCS L-Glutamine, Pen/Strep, Hepes, Sodium Pyruvate, non-essential amino acids (Beit Haemek). PF670462 inhibitor was dissolved in DMSO and added to the tissue culture medium at the indicated concentrations and 0.1% DMSO. As for control, the cells were treated with vehicle only. After 36-48 h, cells were harvested and counted manually using a camera and standard inverted light microscope. Dead cells were excluded using Trypan Blue (sigma). The number of normal and BCR-ABL expressing cells was later extrapolated according to FACS analysis of % GFP^+/7AAD^− expressing cells. AnnexinV-PE (MBL), 7AAD (Tonbo) staining was evaluated by FACS according to manufacturer's recommendation.
Total RNA from cells was extracted using DirectZol RNA miniprep (Zymed). cDNA was generated using a poly(dT) oligonucleotides (IDT) and MMLV—Reverse Transcriptase (Invitrogen) and amplified on a 7900HT Real Time PCR System (Applied Biosystems) using Platinum® SYBR® Green (Invitrogen) according to the manufacturer's instructions. At least triplicate reactions were performed for each gene. Melting curve analysis was performed after each run to control for the nonspecific PCR products and primer dimers. […]

[2] = system: leukemia initiating cells (LIC); test: BCR-ABL CML blast crisis mouse model, in vivo treatment
Description: To generate the BCR-ABL-inducible CML model, BM cells from MxCre^− Ck1α1^fl/fl or MxCre^+ Ck1 α1^fl/fl were extracted and enriched for cKit expressing cells (EasySep #18757) and incubated overnight in RPMI supplemented with 15% FCS L-Glutamine, Pen/Strep (Beit Haemek) and stem cell factor (SCF), IL-3, IL-6 and TPO (Peprotech). The culture was then infected with p210BCR-ABL-IRES-GFP retrovirus construct containing supernatant medium for 4 hours and returned to medium for additional 24 h. The culture was then injected I.V. into sub-lethally irradiated (500 rad) mice. Upon detectable steady increase of GFP expressing cells in the mice peripheral blood (by FACS) and rise in leukocyte numbers and immature cells (detected by Wright-Giemsa stained blood films) the mice were sacrificed and their bone marrow was transferred to sub-lethally irradiated WT hosts.
Each such transfer was termed disease generation. By the fourth transfer, the hosts were no longer sub-lethally irradiated prior to disease transfer and the time between generations was shorter (usually 10 days). Blast crisis development was easily detectable by the highly abnormal number of blast cells (more than 30% of WBC in PB) and the shortening time between transfers. The experimental procedure is illustrated in FIG. 3. Experiments were performed on late generation diseases in which blasts were easily detectable, no irradiation of hosts was necessary and the generation time was short (up to 14 days). Mice were monitored daily for cachexia, lethargy, and ruff coats, paralysis and moribund mice were sacrificed.
as §1

WT BM cells = test: 7AAD-/Annexin+ apoptosis assay, WT BM cells; format: cell-based, mouse; conditions: FIG. 5D
Description: as §2

[3] = system: BCR-ABL expressing (GFP+) leukemic cells; test: In vitro inhibitor test, leukemic cell number in 1:1 mixed CML/normal bone marrow culture; format: cell-based; conditions: increasing concentration of inhibitor
Description: as §2

normal BM cells = test: In vitro inhibitor test, normal cell number in 1:1 mixed CML/normal bone marrow culture; format: cell-based, mouse; conditions: increasing concentration of inhibitor
Description: as §2

leukemic cells = test: 7AAD-/Annexin+ apoptosis assay, leukemic cells; format: cell-based, mouse; conditions: FIG. 5D
Description: as §2

[4] = bone marrow of inhibitor-treated mice transplanted to lethally irradiated mice, one month after transplantation

NCCNS(=O)(=O)c1ccc(Cl)c2ccncc12 [CKI7]
induction of a DNA damage response [1]: nor do they induce a DNA damage response | stabilization of beta catenin and p53 [1]: none of these agents stabilize beta catenin and p53

NC(=O)c1ccc(-c2nc(-c3ccc4c(c3)OCCO4)c(-c3ccccn3)[nH]2)cc1 [D4476]
induction of a DNA damage response [1]: nor do they induce a DNA damage response | stabilization of beta catenin and p53 [1]: none of these agents stabilize beta catenin and p53

COc1cc(OC)c(C=C2C(O)=Nc3ccccc32)c(OC)c1 [IC261]
induction of a DNA damage response [1]: nor do they induce a DNA damage response | stabilization of beta catenin and p53 [1]: none of these agents stabilize beta catenin and p53

Nc1nccc(-c2c(-c3ccc(F)cc3)ncn2C2CCCCC2)n1 [PF670462]
β-catenin, p53 and c-Myc protein in bone marrow (Western blot) (β-catenin, p53, c-Myc): stabilization of β-catenin and p53 and induction of the Wnt target gene c-Myc | expression of Wnt and p53 targets (RT-PCR) (Wnt and p53 pathway): upregulation of Wnt and p53 in a dose dependent manner | bone marrow reconstitution of secondary recipients (LT-HSC integrity) [2, 4]: fully reconstitute | leukemia GFP+ cells in peripheral blood of secondary recipients [2, 4]: no evidence of leukemia GFP+ cells | GFP+ leukemic cells in peripheral blood ([2]; daily i.p. 60 mg/Kg starting 7 hour after disease transfer, FIG. 6C): almost undetectable | bone marrow / vertebrate histology ([2]; daily i.p. 60 mg/Kg, FIG. 6D): normal bone marrow appearance with intact vertebrates | blasts in peripheral blood ([2]; daily i.p. 60 mg/Kg, FIG. 6E): no blast were detected | survival of leukemic mice ([2]; daily i.p. 60 mg/Kg, vehicle group died within 12 days, FIG. 6F): remained alive | apoptotic cell rate (7AAD-/Annexin+) (WT BM cells): not significantly effected | decline in leukemic cell number [3]: much more prominent | normal BM cell number (normal BM cells): only slightly reduced | apoptotic cell rate (7AAD-/Annexin+) (leukemic cells): increase in apoptotic cell rate under the inhibitor treatment in a dosage dependent manner
